Key:
[1] = Growth inhibition of human NCI-H1792 cells incubated for 72 hrs by Cell-titer-Glo reagent based assay; assay type: functional; conditions: NCI-H1792, 72 h
[2] = Growth inhibition of human LS1034 cells assessed combination index at 1:10 molar ratio of compound in presence of N-{3-[3-cyclopropyl-5-(2-fluoro-4-iodo-phenylamino)-6,8-dimethyl- 2,4,7-trioxo-3,4,6,7-tetrahydro-2H-pyrido[4,3-d]pyrimidin-1-yl]phenyl}acetamide incubated for 72 hrs by Cell-titer-Glo reagent based assay; assay type: functional, LS-1034
[3] = Growth inhibition of human SW900 cells incubated for 72 hrs by Cell-titer-Glo reagent based assay; assay type: functional; conditions: SW900, 72 h
[4] = Growth inhibition of human NCI-H1155 cells at 1:10 molar ratio of compound in presence of N-{3-[3-cyclopropyl-5-(2-fluoro-4-iodo-phenylamino)-6,8-dimethyl- 2,4,7-trioxo-3,4,6,7-tetrahydro-2H-pyrido[4,3-d]pyrimidin-1-yl]phenyl}acetamide incubated for 72 hrs by Cell-titer-Glo reagent based assay; assay type: functional; conditions: NCI-H1155, 72 h
[5] = Growth inhibition of human SW1463 cells incubated for 72 hrs by Cell-titer-Glo reagent based assay; assay type: functional; conditions: SW1463, 72 h
[6] = Growth inhibition of human SW1417 cells incubated for 72 hrs by Cell-titer-Glo reagent based assay; assay type: functional; conditions: SW1417, 72 h
[7] = Growth inhibition of human MV522 cells incubated for 72 hrs by Cell-titer-Glo reagent based assay; assay type: functional; conditions: MV522, 72 h
[8] = Growth inhibition of human A549 cells incubated for 72 hrs by Cell-titer-Glo reagent based assay; assay type: functional; conditions: A549, 72 h
[9] = Growth inhibition of human SW480 cells incubated for 72 hrs by Cell-titer-Glo reagent based assay; assay type: functional; conditions: SW480, 72 h
[10] = Growth inhibition of human NCI-H1355 cells incubated for 72 hrs by Cell-titer-Glo reagent based assay; assay type: functional; conditions: NCI-H1355, 72 h
[11] = Growth inhibition of human EFM19 cells at 1:10 molar ratio of compound in presence of N-{3-[3-cyclopropyl-5-(2-fluoro-4-iodo-phenylamino)-6,8-dimethyl- 2,4,7-trioxo-3,4,6,7-tetrahydro-2H-pyrido[4,3-d]pyrimidin-1-yl]phenyl}acetamide incubated for 72 hrs by Cell-titer-Glo reagent based assay; assay type: functional; conditions: EFM-19, 72 h
[12] = Growth inhibition of human EFM19 cells incubated for 72 hrs by Cell-titer-Glo reagent based assay; assay type: functional; conditions: EFM-19, 72 h
[13] = Growth inhibition of human A427 cells incubated for 72 hrs by Cell-titer-Glo reagent based assay; assay type: functional; conditions: A-427, 72 h
[14] = Growth inhibition of human HOP62 cells incubated for 72 hrs by Cell-titer-Glo reagent based assay; assay type: functional; conditions: HOP-62, 72 h
[15] = Growth inhibition of human COLO205 cells incubated for 72 hrs by Cell-titer-Glo reagent based assay; assay type: functional; conditions: COLO 205, 72 h
[16] = Growth inhibition of human MDA-MB-175-VII cells incubated for 72 hrs by Cell-titer-Glo reagent based assay; assay type: functional
[17] = Growth inhibition of human NCI-H727 cells incubated for 72 hrs by Cell-titer-Glo reagent based assay; assay type: functional; conditions: NCI-H727, 72 h
[18] = Growth inhibition of human SW837 cells incubated for 72 hrs by Cell-titer-Glo reagent based assay; assay type: functional; conditions: SW837, 72 h
[19] = Growth inhibition of human LS1034 cells incubated for 72 hrs by Cell-titer-Glo reagent based assay; assay type: functional; conditions: LS-1034, 72 h
[20] = Growth inhibition of human Calu3 cells at 1:10 molar ratio of compound in presence of N-{3-[3-cyclopropyl-5-(2-fluoro-4-iodo-phenylamino)-6,8-dimethyl- 2,4,7-trioxo-3,4,6,7-tetrahydro-2H-pyrido[4,3-d]pyrimidin-1-yl]phenyl}acetamide incubated for 72 hrs by Cell-titer-Glo reagent based assay; assay type: functional; conditions: Calu-3, 72 h
[21] = Growth inhibition of human HT-29 cells incubated for 72 hrs by Cell-titer-Glo reagent based assay; assay type: functional; conditions: HT-29, 72 h
[22] = Growth inhibition of human NCI-H23 cells incubated for 72 hrs by Cell-titer-Glo reagent based assay; assay type: functional; conditions: NCI-H23, 72 h
[23] = Growth inhibition of human Calu3 cells incubated for 72 hrs by Cell-titer-Glo reagent based assay; assay type: functional; conditions: Calu-3, 72 h
[24] = Growth inhibition of human KM12 cells incubated for 72 hrs by Cell-titer-Glo reagent based assay; assay type: functional; conditions: KM12, 72 h
[25] = Growth inhibition of human T84 cells incubated for 72 hrs by Cell-titer-Glo reagent based assay; assay type: functional; conditions: T84, 72 h
[26] = Growth inhibition of human NCI-H727 cells at 1:10 molar ratio of compound in presence of N-{3-[3-cyclopropyl-5-(2-fluoro-4-iodo-phenylamino)-6,8-dimethyl- 2,4,7-trioxo-3,4,6,7-tetrahydro-2H-pyrido[4,3-d]pyrimidin-1-yl]phenyl}acetamide incubated for 72 hrs by Cell-titer-Glo reagent based assay; assay type: functional; conditions: NCI-H727, 72 h
[27] = Growth inhibition of human HCC827 cells incubated for 72 hrs by Cell-titer-Glo reagent based assay; assay type: functional; conditions: HCC827, 72 h
[28] = Growth inhibition of human DLD1 cells incubated for 72 hrs by Cell-titer-Glo reagent based assay; assay type: functional; conditions: DLD-1, 72 h
[29] = Growth inhibition of human RKO cells incubated for 72 hrs by Cell-titer-Glo reagent based assay; assay type: functional
[30] = Growth inhibition of human NCI-H1155 cells incubated for 72 hrs by Cell-titer-Glo reagent based assay; assay type: functional; conditions: NCI-H1155, 72 h
[31] = Growth inhibition of human SW1573 cells incubated for 72 hrs by Cell-titer-Glo reagent based assay; assay type: functional; conditions: SW1573, 72 h
[32] = Growth inhibition of human EFM19 cells at 1:10 molar ratio of compound in presence of N-{(1S)-2-amino-1-[(3-fluorophenyl)methyl]ethyl}-5-chloro-4-(4-chloro-1-methyl-1H-pyrazol-5-yl)-2-thiophenecar- boxamide incubated for 72 hrs by Cell-titer-Glo reagent based assay; assay type: functional; conditions: EFM-19, 72 h
[33] = Growth inhibition of human HOP62 cells at 1:10 molar ratio of compound in presence of N-{(1S)-2-amino-1-[(3-fluorophenyl)methyl]ethyl}-5-chloro-4-(4-chloro-1-methyl-1H-pyrazol-5-yl)-2-thiophenecar- boxamide incubated for 72 hrs by Cell-titer-Glo reagent based assay; assay type: functional; conditions: HOP-62, 72 h
[34] = Growth inhibition of human Calu6 cells assessed combination index at 1:10 molar ratio of compound in presence of N-{(1S)-2-amino-1-[(3-fluorophenyl)methyl]ethyl}-5-chloro-4-(4-chloro-1-methyl-1H-pyrazol-5-yl)-2-thiophenecar- boxamide incubated for 72 hrs by Cell-titer-Glo reagent based assay; assay type: functional, Calu-6
[35] = Growth inhibition of human NCI-H727 cells at 1:10 molar ratio of compound in presence of N-{(1S)-2-amino-1-[(3-fluorophenyl)methyl]ethyl}-5-chloro-4-(4-chloro-1-methyl-1H-pyrazol-5-yl)-2-thiophenecar- boxamide incubated for 72 hrs by Cell-titer-Glo reagent based assay; assay type: functional; conditions: NCI-H727, 72 h
[36] = Growth inhibition of human COLO205 cells at 1:10 molar ratio of compound in presence of N-{(1S)-2-amino-1-[(3-fluorophenyl)methyl]ethyl}-5-chloro-4-(4-chloro-1-methyl-1H-pyrazol-5-yl)-2-thiophenecar- boxamide incubated for 72 hrs by Cell-titer-Glo reagent based assay; assay type: functional; conditions: COLO 205, 72 h

SMILES	IC50 [1] [nM]	IC50 [3] [nM]	IC50 [5] [nM]	IC50 [6] [nM]	IC50 [7] [nM]	IC50 [8] [nM]	IC50 [9] [nM]	IC50 [10] [nM]	IC50 [12] [nM]	IC50 [13] [nM]	IC50 [14] [nM]	IC50 [15] [nM]	IC50 [16] [nM]	IC50 [17] [nM]	IC50 [18] [nM]	IC50 [19] [nM]	IC50 [21] [nM]	IC50 [22] [nM]	IC50 [23] [nM]	IC50 [24] [nM]	also measured
Cn1ncc(Cl)c1-c1cc(C(=O)N[C@H](CN)Cc2cccc(F)c2)sc1Cl [AFURESERTIB]	7310	> 10000	9720	> 10000	3040	5990	> 10000	6680	430	> 8000	> 10000	2570	794	4800	> 10000	4340	1380	7120	> 8000	2250	CI [2]: 0.84; IC50 [4]: 101 nM; IC50 [11]: 300 nM; IC50 [20]: 392 nM; IC50 [25]: > 10000 nM; IC50 [26]: 19 nM; IC50 [27]: > 8000 nM; IC50 [28]: > 10000 nM; IC50 [29]: 1810 nM; IC50 [30]: 865 nM; IC50 [31]: > 8000 nM
CC(=O)Nc1cccc(-n2c(=O)n(C3CC3)c(=O)c3c(Nc4ccc(I)cc4F)n(C)c(=O)c(C)c32)c1 [TRAMETINIB]	53	127	4	3	2	34	37	52	> 1000	22	> 1000	1	96	2	74	5	2	29	158	23	IC50 [32]: 30 nM; IC50 [33]: 50 nM; CI [34]: 0.79; IC50 [25]: 61 nM; IC50 [27]: > 1000 nM; IC50 [28]: 632 nM; IC50 [29]: 18 nM; IC50 [35]: 2 nM; IC50 [36]: 1 nM; IC50 [30]: > 1000 nM; IC50 [31]: > 1000 nM

From ChEMBL document CHEMBL3880386, “Combination comprising the MEK inhibitor N-{3-[3-cyclopropyl-5-(2-fluoro-4-iodo- phenylamino)-6,8-dimethyl-2,4,7-trioxo-3,4,6,7-tetrahydro-2H-pyrido[4,3-d]pyrimidin-1-yl]phenyl}acetamide and the Akt inhibitor N-{(1S)-2-amino-1-[(3-fluorophenyl)methyl]ethyl}-5-chloro-4-(4-chloro-1- …” (2014)
